Experimental data as given in US6399570B1, “Antimicrobial/endotoxin neutralizing polypeptide” (priority 1999, dated 2002).

Legend:
E. coli 0111 [1] = assay: Galactosamine-sensitized, leukopenic mouse model of bacteremic lethality; assay type: in vivo, CF-1 mice; conditions: 100 μM, i.p., simultaneous with lethal E. coli dose; 10% in untreated animals
Description: The ultimate protective potential of the LF 6 kDa polypeptide in a host-defense against bacterial infection was determined by testing in an acute, galactosamine-sensitized, leukopenic mouse model system (Bucklin et al., J. Infect. Dis. 174: 1249-1254 (1996)). In this model, mice were made leukopenic to suppress their endogenous host defense systems and then sensitized to the effects of Gram-negative endotoxins by galactosamine treatment while injecting a lethal intraperitoneal dose of E. coli. […] This rescue from lethality dramatically illustrates the protective potential of the polypeptide in vivo and is likely due to its combined antimicrobial and anti-endotoxin properties.
Generation of galactosamine-sensitized, leukopenic mouse model system. CF-1 mice were rendered immunocompromised by cyclophosphamide treatment three days prior to galactosamine-sensitizing them to the lethal effects of injection with an LD90 dose of E. coli 0111 (Bucklin et al., J. Infect. Dis. 174: 1249-1254 (1996)). Under these conditions, circulating leukocytes were reduced by 85% and the LD90 was determined to be 5×10^3 CFU E. coli.

E. coli = assay: Ionic strength effect on antimicrobial activity; assay type: cell-based; conditions: 25 μM polypeptide
Description: For example, reducing the ionic strength from 150 mM NaCl to 50 mM NaCl reduces the number of viable bacteria after exposure by ˜10,000-fold.
Determining ionic strength effect on antimicrobial activity. E. coli were cultured overnight as described earlier. […] To control for the effects of salt alone on culture growth, the ratio of CFU in polypeptide treated cultures to that in untreated control cultures, grown in the same salt concentration but lacking any polypeptide treatment, was calculated for each salt concentration examined. These values were then normalized to the ratio calculated for CFUs measured at […], the lowest salt concentration tested, and plotted on the Y-axis versus increasing concentration of salt on the X-axis.

E. coli 0111 [2] = assay: Time course of E. coli growth in the presence of LF polypeptides; assay type: cell-based; conditions: 50 μM, seven hour time course, OD 600 nm
Description: To investigate whether regions of the molecule involved in GAG binding activity of the 6 kDa LF polypeptide (generated from pepsin digestion) are also involved in the antimicrobial activity of the 6 kDa polypeptide of the present invention, polypeptides of various lengths corresponding to the N-terminal amino acid sequence of LF were tested for the ability to inhibit the growth of E. coli 0111. Overnight cultures were grown over a seven hour time course in the presence of 50 μM of either LF, a 33-mer corresponding to amino acids 1-33 of LF, a 26-mer corresponding to […] of LF, a 27-mer corresponding to amino acids 1-27 of LF. […] This is consistent with LF and the 33-mer inhibiting bacterial growth via different mechanisms. […] The failure of the 26-mer and the 27-mer to inhibit culture growth emphasizes the importance of retaining both clusters of basic residues, at the termini of the 33-mer, for the antimicrobial functionality of polypeptides derived from the N-terminal LF sequence.
Time course of E. coli growth in the presence of LF polypeptides. E. coli cells, clinical isolate strain 0111, were obtained from ATCC. […] Culture growth was monitored spectrophotometrically by measuring optical density at 600 nm at each indicated time point.

S. abortus LPS = assay: Limulus ELISA, ENC50 against S. abortus LPS; assay type: biochemical, Salmonella abortus equi; conditions: endotoxin 200 EU/ml; mean +/− SD
Description: The peptide-mediated inhibition of endotoxin-induced Limulus amebocyte lysate (LAL) coagulation was measured with a sensitive LAL assay (Zhang et al., J. Clin. Microbiol. 32: 416-422 (1994)). Limulus ELISA is an endotoxin assay based on activation of the LAL coagulation by endotoxin and detection of the generated peptide-C immunoreactivity with an ELISA using a monoclonal antibody to the polypeptide. Endotoxin was defined to be neutralized when it lost its ability to activate the LAL enzymes. The 50% endotoxin-neutralizing concentration (ENC50) reflects the potency of an anti-endotoxin agent; a low ENC50 indicates high potency. Table 2 lists the determined ENC50 value of each anti-endotoxin agent against lipid A and four different types of LPS. The potency of each anti-endotoxin agent varied depending on the type of endotoxin. […] The only difference between the sequence of LF-33 and LF-27 is that LF-27 lacks the first six residues (GRRRRS) at the N-terminus of LF-33. Remarkably, this deletion led to dramatic loss of the endotoxin-neutralizing capacity of the polypeptide in this assay. Binding of serum proteins to endotoxin neutralizes the endotoxin activity in this assay by preventing endotoxin from activating LAL (Emancipator et al., Infect. Immun. 60: 596-601 (1992)).
LPS. […] LPS (purity >99%) from Neisseria meningitidis was prepared from the group B strain #6275 and its potency was 25 EU/ng. […] The potency of the above endotoxin was determined with the Limulus enzyme-linked immunosorbent assay (ELISA, 43) in comparison with US Pharmacopeia reference standard endotoxin EC-5.
Briefly, 25 μl endotoxin solution (200 EU/ml) was mixed with an equal volume of test materials in a series of two-fold dilution in 0.15 M NaCl in a sterile 96-well tissue culture plate (Nunc A/S, Roskilde, Denmark), and incubated at 37° C. for 1 h in a dry-air incubator. […] The endotoxin activity was then quantified with the use of Limulus ELISA (Zhang et al., J. Clin. Microbiol. 32: 416-422 (1994)). […] The high sensitivity of the assay allowed for very low levels of the endotoxin activity to be detected. […]

Row | Compound | survival rate of infected animals (E. coli 0111 [1]) [%] | reduction of number of viable bacteria on reducing ionic strength (E. coli; from 150 mM NaCl to 50 mM NaCl) | growth inhibiting activity at elevated ionic strength (E. coli; ionic strengths equal to or greater than 200 mM NaCl) | growth of E. coli 0111 cultures (E. coli 0111 [2]) | ENC50 against S. abortus LPS (S. abortus LPS) | IC50 (S. abortus LPS) [µM]
1 | 6 kDa polypeptide: 6 kDa fragment produced by cathepsin D digestion of human LF, amino acids 1-49 of SEQ ID NO: 2 (GRRRRSVQWCAVSQPEATKCFQWQRNMRKVRGPPVSCIKRDSPIQCIQA; listed as Homo sapiens) | 70 | ~10,000 fold | essentially lost | – | – | –
2 | CSCC[C@H](NC(=O)[C@H](CC(N)=O)NC(=O)[C@H](CCCNC(=N)N)NC(=O)[C@H](CCC(N)=O)NC(=O)[C@H](Cc1c[nH]c2ccccc12)NC(=O)[C@H](CCC(N)=O)NC(=O)[C@H](Cc1ccccc1)NC(=O)[C@H](CS)NC(=O)[C@H](CCCCN)NC(=O)[C@@H](NC(=O)[C@H](C)NC(=O)[C@H](CCC(=O)O)NC(=O)[C@@H]1CCCN1C(=O)[C@H](CCC(N)=O)NC(=O)[C@H](CO)NC(=O)[C@@H](NC(=O)[C@H](C)NC(=O)[C@H](CS)NC(=O)[C@H](Cc1c[nH]c2ccccc12)NC(=O)[C@H](CCC(N)=O)NC(=O)[C@@H](N)C(C)C)C(C)C)[C@@H](C)O)C(=O)N[C@@H](CCCNC(=N)N)C(=O)N[C@@H](CCCCN)C(=O)N[C@H](C(=O)N[C@@H](CCCNC(=N)N)C(=O)NCC(=O)N1CCC[C@H]1C(=O)O)C(C)C [LF-27] | – | – | – | failure | no detectable activity | > 300
